{"source": "the supplement of paper PMC10307832", "assay_in_all_cases": "relative viability (nuclei count vs DMSO), 5 days (fraction); higher = more cells survive", "key": {"[1]": {"system": "EKVX", "summary_of_the_method": "(§1)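 The day after seeding in 1536-well plates, lung cancer cell lines were treated by pin tool with a single drug, or with a fixed anchor-drug dose together with five library-drug doses (not always all listed) in √10 steps. After 5 days, a combined fix-and-stain solution (final 0.05% Triton X-100, 1% formaldehyde, 1 ug/ml Hoechst) was added. Nuclei counted on 4× images gave relative viability as treated counts over vehicle counts, reported as the median of duplicate plates.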"}, "[2]": {"system": "NCI-H23", "summary_of_the_method": "as §1"}, "[3]": {"system": "NCI-H596", "summary_of_the_method": "as §1"}, "[4]": {"system": "201T", "summary_of_the_method": "as §1"}, "[5]": {"system": "NCI-H2126", "summary_of_the_method": "as §1"}, "[6]": {"system": "LCLC-103H", "summary_of_the_method": "as §1"}, "[7]": {"system": "NCI-H727", "summary_of_the_method": "as §1"}, "[8]": {"system": "NCI-H3122", "summary_of_the_method": "as §1"}, "[9]": {"system": "NCI-H2405", "summary_of_the_method": "as §1"}, "[10]": {"system": "NCI-H661", "summary_of_the_method": "as §1"}, "[11]": {"system": "HARA", "summary_of_the_method": "as §1"}, "[12]": {"system": "LOU-NH91", "summary_of_the_method": "as §1"}}}
{"smiles": "Cc1csc(=NC2CCCCC2)n1/N=C/c1ccc(O)c(O)c1O", "note": "[MIM1] + CCNC(=O)c1noc(-c2cc(C(C)C)c(O)cc2O)c1-c1ccc(CN2CCOCC2)cc1 [Luminespib] (partner 0.01 µM)", "values": [{"measurement": "relative viability", "setting": "[1]; first compound 0.2 µM", "value": 0.863}, {"measurement": "relative viability", "setting": "[1]; first compound 0.6325 µM", "value": 0.766}, {"measurement": "relative viability", "setting": "[1]; first compound 2 µM", "value": 0.832}, {"measurement": "relative viability", "setting": "[1]; first compound 6.325 µM", "value": 0.701}, {"measurement": "relative viability", "setting": "[1]; first compound 20 µM", "value": 0.617}, {"measurement": "relative viability", "setting": "[2]; first compound 0.2 µM", "value": 0.262}, {"measurement": "relative viability", "setting": "[2]; first compound 0.6325 µM", "value": 0.208}, {"measurement": "relative viability", "setting": "[2]; first compound 6.325 µM", "value": 0.198}, {"measurement": "relative viability", "setting": "[2]; first compound 20 µM", "value": 0.211}, {"measurement": "relative viability", "setting": "[3]; first compound 0.2 µM", "value": 1.03}, {"measurement": "relative viability", "setting": "[3]; first compound 0.6325 µM", "value": 0.879}, {"measurement": "relative viability", "setting": "[3]; first compound 2 µM", "value": 0.939}, {"measurement": "relative viability", "setting": "[3]; first compound 6.325 µM", "value": 0.918}, {"measurement": "relative viability", "setting": "[3]; first compound 20 µM", "value": 0.486}, {"measurement": "relative viability", "setting": "[4]; first compound 0.2 µM", "value": 1.03}, {"measurement": "relative viability", "setting": "[4]; first compound 0.6325 µM", "value": 1.05}, {"measurement": "relative viability", "setting": "[4]; first compound 2 µM", "value": 1.03}, {"measurement": "relative viability", "setting": "[4]; first compound 6.325 µM", "value": 0.548}, {"measurement": "relative viability", "setting": "[4]; first compound 20 µM", "value": 0.368}, {"measurement": "relative viability", "setting": "[5]; first compound 0.2 µM", "value": 0.891}, {"measurement": "relative viability", "setting": "[5]; first compound 0.6325 µM", "value": 0.943}, {"measurement": "relative viability", "setting": "[5]; first compound 2 µM", "value": 0.957}, {"measurement": "relative viability", "setting": "[5]; first compound 6.325 µM", "value": 0.88}, {"measurement": "relative viability", "setting": "[5]; first compound 20 µM", "value": 0.466}, {"measurement": "relative viability", "setting": "[6]; first compound 0.2 µM", "value": 1.03}, {"measurement": "relative viability", "setting": "[6]; first compound 0.6325 µM", "value": 0.908}, {"measurement": "relative viability", "setting": "[6]; first compound 2 µM", "value": 0.908}, {"measurement": "relative viability", "setting": "[6]; first compound 6.325 µM", "value": 0.632}, {"measurement": "relative viability", "setting": "[6]; first compound 20 µM", "value": 0.419}, {"measurement": "relative viability", "setting": "[7]; first compound 0.2 µM", "value": 0.353}, {"measurement": "relative viability", "setting": "[7]; first compound 0.6325 µM", "value": 0.309}, {"measurement": "relative viability", "setting": "[7]; first compound 2 µM", "value": 0.386}, {"measurement": "relative viability", "setting": "[7]; first compound 6.325 µM", "value": 0.386}, {"measurement": "relative viability", "setting": "[7]; first compound 20 µM", "value": 0.392}, {"measurement": "relative viability", "setting": "[8]; first compound 0.2 µM", "value": 0.0956}, {"measurement": "relative viability", "setting": "[8]; first compound 0.6325 µM", "value": 0.0902}, {"measurement": "relative viability", "setting": "[8]; first compound 2 µM", "value": 0.103}, {"measurement": "relative viability", "setting": "[8]; first compound 6.325 µM", "value": 0.106}, {"measurement": "relative viability", "setting": "[8]; first compound 20 µM", "value": 0.0938}, {"measurement": "relative viability", "setting": "[9]; first compound 0.2 µM", "value": 0.68}, {"measurement": "relative viability", "setting": "[9]; first compound 0.6325 µM", "value": 0.92}, {"measurement": "relative viability", "setting": "[9]; first compound 2 µM", "value": 0.654}, {"measurement": "relative viability", "setting": "[9]; first compound 6.325 µM", "value": 0.543}, {"measurement": "relative viability", "setting": "[9]; first compound 20 µM", "value": 0.403}, {"measurement": "relative viability", "setting": "[10]; first compound 0.2 µM", "value": 0.92}, {"measurement": "relative viability", "setting": "[10]; first compound 0.6325 µM", "value": 0.928}, {"measurement": "relative viability", "setting": "[10]; first compound 2 µM", "value": 0.86}, {"measurement": "relative viability", "setting": "[10]; first compound 6.325 µM", "value": 0.576}, {"measurement": "relative viability", "setting": "[10]; first compound 20 µM", "value": 0.269}, {"measurement": "relative viability", "setting": "[11]; first compound 0.2 µM", "value": 0.866}, {"measurement": "relative viability", "setting": "[11]; first compound 2 µM", "value": 0.776}, {"measurement": "relative viability", "setting": "[11]; first compound 6.325 µM", "value": 0.251}, {"measurement": "relative viability", "setting": "[11]; first compound 20 µM", "value": 0.0856}, {"measurement": "relative viability", "setting": "[12]; first compound 0.2 µM", "value": 0.338}, {"measurement": "relative viability", "setting": "[12]; first compound 0.6325 µM", "value": 0.338}, {"measurement": "relative viability", "setting": "[12]; first compound 2 µM", "value": 0.32}]}
